Data published in patent US10597388B2, “Pyridazinone herbicides” (FMC CORPORATION, priority 2014, dated 2020).

Experiments:
Type in all cases: in vivo
[1] = tested on: barnyardgrass (Echinochloa crus-galli); assay: Test C greenhouse herbicide test, pre- and postemergence
Text: (§1) Seeds of plant species selected from blackgrass (Alopecurus myosuroides), ryegrass, Italian (Italian ryegrass, Lolium multiflorum), wheat (winter wheat, Triticum aestivum), galium (catchweed bedstraw, Galium aparine), corn (Zea mays), large crabgrass, large (large crabgrass, Digitaria sanguinalis), foxtail, giant (giant foxtail, Setaria faberii), johnsongrass (Sorghum halepense), lambsquarters (Chenopodium album), morningglory (Ipomoea coccinea), nutsedge, yellow (yellow nutsedge, Cyperus esculentus), pigweed (Amaranthus retroflexus), ragweed (common ragweed, Ambrosia elatior), soybean (Glycine max), barnyardgrass (Echinochloa crus-galli), oilseed rape (Brassica napus), waterhemp (common waterhemp, Amaranthus rudis), and velvetleaf (Abutilon theophrasti) were planted into a blend of loam soil and sand and treated preemergence with test chemicals formulated in a non-phytotoxic solvent mixture which included a surfactant.
(§2) At the same time, plants selected from these crop and weed species and also chickweed (common chickweed, Stellaria media), kochia (Kochia scoparia), and oat, wild (wild oat, Avena fatua), were planted in pots containing Redi-Earth® planting medium (Scotts Company, 14111 Scottslawn Road, Marysville, Ohio 43041) comprising spaghnum peat moss, vermiculite, wetting agent and starter nutrients and treated with postemergence applications of test chemicals formulated in the same manner. Plants ranged in height from 2 to 18 cm (1- to 4-leaf stage) for postemergence treatments. Treated plants and controls were maintained in a greenhouse for 13 to 15 d, after which time all species were compared to controls and visually evaluated. Plant response ratings, summarized in Table C, are based on a scale of 0 to 100 where 0 is no effect and 100 is complete control. A dash (-) response means no test result.

[2] = tested on: blackgrass (Alopecurus myosuroides); assay: as above
Text: as §1, §2

corn (Zea mays) = assay: as above
Text: as §1, §2

[3] = tested on: crabgrass, large (large crabgrass, Digitaria sanguinalis); assay: as above
Text: as §1, §2

[4] = tested on: foxtail, giant (giant foxtail, Setaria faberii); assay: as above
Text: as §1, §2

[5] = tested on: johnsongrass (Sorghum halepense); assay: as above
Text: as §1, §2

[6] = tested on: lambsquarters (Chenopodium album); assay: as above
Text: as §1, §2

[7] = tested on: morningglory (Ipomoea coccinea); assay: as above
Text: as §1, §2

[8] = tested on: nutsedge, yellow (yellow nutsedge, Cyperus esculentus); assay: as above
Text: as §1, §2

[9] = tested on: oilseed rape (Brassica napus); assay: as above
Text: as §1, §2

[10] = tested on: pigweed (Amaranthus retroflexus); assay: as above
Text: as §1, §2

[11] = tested on: velvetleaf (Abutilon theophrasti); assay: as above
Text: as §1, §2

[12] = tested on: waterhemp (common waterhemp, Amaranthus rudis); assay: as above
Text: as §1, §2

[13] = tested on: wheat (winter wheat, Triticum aestivum); assay: as above
Text: as §1, §2

kochia (Kochia scoparia) = assay: Test C greenhouse herbicide test, postemergence
Method in brief: (§3)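 Postemergence foliar treatment, 1- to 4-leaf stage (2–18 cm), peat/vermiculite medium; greenhouse 13–15 d; visual rating vs controls, 0 = no effect, 100 = complete control; dash = no result.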

[14] = tested on: oat, wild (wild oat, Avena fatua); assay: Test C greenhouse herbicide test, postemergence
Method in brief: as §3

[15] = Postemergence, 31 g ai/ha, 0 to 100 scale (0 no effect, 100 complete control)
[16] = Postemergence, 125 g ai/ha, scale 0 to 100, 0 is no effect, 100 is complete control
[17] = Postemergence, 250 g ai/ha, scale 0 to 100, 0 no effect, 100 complete control, 13 to 15 d
[18] = Preemergence, 31 g ai/ha, scale 0 to 100, 0 is no effect, 100 is complete control
[19] = Preemergence, 62 g ai/ha, scale 0 to 100, 0 is no effect, 100 is complete control
[20] = Preemergence, 125 g ai/ha, scale 0 to 100, 0 is no effect, 100 is complete control
[21] = Preemergence, 250 g ai/ha, scale 0 to 100 (0 no effect, 100 complete control)
[22] = postemergence, 62 g ai/ha, scale 0 to 100, 0 no effect, 100 complete control

COc1nn(C)c(=O)c(-c2c(C)ccc3ccccc23)c1O [Compound 54]
Barnyardgrass plant response rating [1, 15]: 15 | Plant response rating, Barnyardgrass [1, 16]: 55 | Plant response rating, Barnyardgrass [1, 17]: 20 | Plant response rating, Barnyardgrass [1, 18]: 15 | Plant response rating, Barnyardgrass [1, 19]: 35 | Plant response rating, Barnyardgrass [1, 20]: 65 | Barnyardgrass plant response rating [1, 21]: 85 | Barnyardgrass plant response rating [1, 22]: 30 | Blackgrass plant response rating [2, 15]: 15 | Plant response rating, Blackgrass [2, 16]: 60 | Plant response rating, Blackgrass [2, 17]: 40 | Plant response rating, Blackgrass [2, 18]: 50 | Plant response rating, Blackgrass [2, 19]: 55 | Plant response rating, Blackgrass [2, 20]: 55 | Blackgrass plant response rating [2, 21]: 80 | Blackgrass plant response rating [2, 22]: 5 | Corn plant response rating (corn (Zea mays); [15]): 0 | Plant response rating, Corn (corn (Zea mays); [16]): 5 | Plant response rating, Corn (corn (Zea mays); [17]): 10 | Plant response rating, Corn (corn (Zea mays); [18]): 0 | Plant response rating, Corn (corn (Zea mays); [19]): 10 | Plant response rating, Corn (corn (Zea mays); [20]): 10 | Corn plant response rating (corn (Zea mays); [21]): 0 | Corn plant response rating (corn (Zea mays); [22]): 0 | Crabgrass, Large plant response rating [3, 15]: 20 | Plant response rating, Crabgrass, Large [3, 16]: 35 | Plant response rating, Crabgrass, Large [3, 17]: 55 | Plant response rating, Crabgrass, Large [3, 18]: 40 | Plant response rating, Crabgrass, Large [3, 19]: 40 | Plant response rating, Crabgrass, Large [3, 20]: 75 | Crabgrass, Large plant response rating [3, 21]: 60 | Crabgrass, Large plant response rating [3, 22]: 25 | Foxtail, Giant plant response rating [4, 15]: 20 | Plant response rating, Foxtail, Giant [4, 16]: 75 | Plant response rating, Foxtail, Giant [4, 17]: 90 | Plant response rating, Foxtail, Giant [4, 18]: 70 | Plant response rating, Foxtail, Giant [4, 19]: 80 | Plant response rating, Foxtail, Giant [4, 20]: 75 | Foxtail, Giant plant response rating [4, 21]: 90 | Foxtail, Giant plant response rating [4, 22]: 55 | Johnsongrass plant response rating [5, 15]: 5 | Plant response rating, Johnsongrass [5, 16]: 10 | Plant response rating, Johnsongrass [5, 17]: 10 | Plant response rating, Johnsongrass [5, 18]: 0 | Plant response rating, Johnsongrass [5, 19]: 0 | Plant response rating, Johnsongrass [5, 20]: 5 | Johnsongrass plant response rating [5, 21]: 10 | Johnsongrass plant response rating [5, 22]: 5 | Lambsquarters plant response rating [6, 15]: 95 | Plant response rating, Lambsquarters [6, 16]: 100 | Plant response rating, Lambsquarters [6, 17]: 100 | Plant response rating, Lambsquarters [6, 18]: 80 | Plant response rating, Lambsquarters [6, 19]: 85 | Plant response rating, Lambsquarters [6, 20]: 80 | Lambsquarters plant response rating [6, 21]: 80 | Lambsquarters plant response rating [6, 22]: 95 | Morningglory plant response rating [7, 15]: 95 | Plant response rating, Morningglory [7, 16]: 98 | Plant response rating, Morningglory [7, 17]: 100 | Plant response rating, Morningglory [7, 18]: 80 | Plant response rating, Morningglory [7, 19]: 90 | Plant response rating, Morningglory [7, 20]: 95 | Morningglory plant response rating [7, 21]: 98 | Morningglory plant response rating [7, 22]: 98 | Nutsedge, Yellow plant response rating [8, 15]: 10 | Plant response rating, Nutsedge, Yellow [8, 16]: 55 | Plant response rating, Nutsedge, Yellow [8, 17]: 70 | Plant response rating, Nutsedge, Yellow [8, 18]: 5 | Plant response rating, Nutsedge, Yellow [8, 19]: 5 | Plant response rating, Nutsedge, Yellow [8, 20]: 25 | Nutsedge, Yellow plant response rating [8, 21]: 70 | Nutsedge, Yellow plant response rating [8, 22]: 35 | Oilseed Rape plant response rating [9, 15]: 70 | Plant response rating, Oilseed Rape [9, 16]: 40 | Plant response rating, Oilseed Rape [9, 17]: 70 | Plant response rating, Oilseed Rape [9, 18]: 70 | Plant response rating, Oilseed Rape [9, 19]: 90 | Plant response rating, Oilseed Rape [9, 20]: 90 | Oilseed Rape plant response rating [9, 21]: 100 | Oilseed Rape plant response rating [9, 22]: 80 | Pigweed plant response rating [10, 15]: 85 | Plant response rating, Pigweed [10, 16]: 98 | Plant response rating, Pigweed [10, 17]: 100 | Plant response rating, Pigweed [10, 18]: 100 | Plant response rating, Pigweed [10, 19]: 100 | Plant response rating, Pigweed [10, 20]: 100 | Pigweed plant response rating [10, 21]: 100 | Pigweed plant response rating [10, 22]: 95 | Velvetleaf plant response rating [11, 15]: 45 | Plant response rating, Velvetleaf [11, 16]: 98 | Plant response rating, Velvetleaf [11, 17]: 100 | Plant response rating, Velvetleaf [11, 18]: 80 | Plant response rating, Velvetleaf [11, 19]: 85 | Plant response rating, Velvetleaf [11, 20]: 90 | Velvetleaf plant response rating [11, 21]: 95 | Velvetleaf plant response rating [11, 22]: 90 | Waterhemp plant response rating [12, 15]: 85 | Plant response rating, Waterhemp [12, 16]: 95 | Plant response rating, Waterhemp [12, 17]: 95 | Plant response rating, Waterhemp [12, 18]: 98 | Plant response rating, Waterhemp [12, 19]: 100 | Plant response rating, Waterhemp [12, 20]: 100 | Waterhemp plant response rating [12, 21]: 100 | Waterhemp plant response rating [12, 22]: 90 | Wheat plant response rating [13, 15]: 0 | Plant response rating, Wheat [13, 16]: 0 | Plant response rating, Wheat [13, 17]: 0 | Plant response rating, Wheat [13, 18]: 0 | Plant response rating, Wheat [13, 19]: 0 | Plant response rating, Wheat [13, 20]: 0 | Wheat plant response rating [13, 21]: 0 | Wheat plant response rating [13, 22]: 50 | Kochia plant response rating (kochia (Kochia scoparia); [15]): 50 | Plant response rating, Kochia (kochia (Kochia scoparia); [16]): 90 | Plant response rating, Kochia (kochia (Kochia scoparia); [17]): 95 | Kochia plant response rating (kochia (Kochia scoparia); [22]): 90 | Oat, Wild plant response rating [14, 15]: 45 | Plant response rating, Oat, Wild [14, 16]: 60 | Plant response rating, Oat, Wild [14, 17]: 85 | Oat, Wild plant response rating [14, 22]: 50

Cc1ccc2ccccc2c1-c1c(O)cnn(C)c1=O [Compound 56]
Barnyardgrass plant response rating [1, 15]: 0 | Plant response rating, Barnyardgrass [1, 16]: 5 | Plant response rating, Barnyardgrass [1, 17]: 10 | Barnyardgrass plant response rating [1, 22]: 5 | Blackgrass plant response rating [2, 15]: 0 | Plant response rating, Blackgrass [2, 16]: 5 | Plant response rating, Blackgrass [2, 17]: 40 | Blackgrass plant response rating [2, 22]: 5 | Corn plant response rating (corn (Zea mays); [15]): 0 | Plant response rating, Corn (corn (Zea mays); [16]): 0 | Plant response rating, Corn (corn (Zea mays); [17]): 0 | Corn plant response rating (corn (Zea mays); [22]): 0 | Crabgrass, Large plant response rating [3, 15]: 0 | Plant response rating, Crabgrass, Large [3, 16]: 5 | Plant response rating, Crabgrass, Large [3, 17]: 20 | Crabgrass, Large plant response rating [3, 22]: 5 | Foxtail, Giant plant response rating [4, 15]: 0 | Plant response rating, Foxtail, Giant [4, 16]: 0 | Plant response rating, Foxtail, Giant [4, 17]: 50 | Foxtail, Giant plant response rating [4, 22]: 0 | Johnsongrass plant response rating [5, 15]: 0 | Plant response rating, Johnsongrass [5, 16]: 5 | Plant response rating, Johnsongrass [5, 17]: 10 | Johnsongrass plant response rating [5, 22]: 0 | Lambsquarters plant response rating [6, 15]: 0 | Plant response rating, Lambsquarters [6, 16]: 85 | Plant response rating, Lambsquarters [6, 17]: 85 | Lambsquarters plant response rating [6, 22]: 50 | Morningglory plant response rating [7, 15]: 35 | Plant response rating, Morningglory [7, 16]: 50 | Plant response rating, Morningglory [7, 17]: 50 | Morningglory plant response rating [7, 22]: 50 | Nutsedge, Yellow plant response rating [8, 15]: 0 | Plant response rating, Nutsedge, Yellow [8, 16]: 50 | Plant response rating, Nutsedge, Yellow [8, 17]: 60 | Nutsedge, Yellow plant response rating [8, 22]: 5 | Oilseed Rape plant response rating [9, 15]: 0 | Plant response rating, Oilseed Rape [9, 16]: 0 | Plant response rating, Oilseed Rape [9, 17]: 0 | Oilseed Rape plant response rating [9, 22]: 0 | Pigweed plant response rating [10, 15]: 80 | Plant response rating, Pigweed [10, 16]: 85 | Plant response rating, Pigweed [10, 17]: 90 | Pigweed plant response rating [10, 22]: 75 | Velvetleaf plant response rating [11, 15]: 0 | Plant response rating, Velvetleaf [11, 16]: 15 | Plant response rating, Velvetleaf [11, 17]: 70 | Velvetleaf plant response rating [11, 22]: 0 | Waterhemp plant response rating [12, 15]: 55 | Plant response rating, Waterhemp [12, 16]: 95 | Plant response rating, Waterhemp [12, 17]: 90 | Waterhemp plant response rating [12, 22]: 75 | Wheat plant response rating [13, 15]: 0 | Plant response rating, Wheat [13, 16]: 5 | Plant response rating, Wheat [13, 17]: 5 | Wheat plant response rating [13, 22]: 0 | Kochia plant response rating (kochia (Kochia scoparia); [15]): 70 | Plant response rating, Kochia (kochia (Kochia scoparia); [16]): 90 | Plant response rating, Kochia (kochia (Kochia scoparia); [17]): 100 | Kochia plant response rating (kochia (Kochia scoparia); [22]): 90 | Oat, Wild plant response rating [14, 15]: 5 | Plant response rating, Oat, Wild [14, 16]: 20 | Plant response rating, Oat, Wild [14, 17]: 40 | Oat, Wild plant response rating [14, 22]: 10
